Among the data in patent publication US10800791B2, “Triazole ACC inhibitors and uses thereof” (Gilead Apollo, LLC, priority 2015, dated 2020) are MIC, IC90 and IC50 values, retold here.

≈ marks a conversion by molar mass, not a printed value. Read-outs that look alike come from different tables or passages of the source.

For assay [1], the system named is C. albicans. The assay can be described thus: Antifungal Activity Assay (broth microtiter MIC), C. albicans. The class given is cell-based, Candida albicans. Conditions: Candida albicans, ATCC90028, 48 h. The essentials: (§1)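 Broth microdilution per CLSI M27-A3 in RPMI 1640+MOPS, inoculum 2.5×10^3 CFU/mL final from overnight Sabouraud dextrose agar cultures at 35° C. Compounds diluted from DMSO stock to 128 μg/mL in water. MIC read visually versus growth control at 48 h.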

Assay [2] deals with Diplodia maydis (Dm). The assay can be described thus: Growth inhibition assay of fungal pathogens, Dm. It counts as cell-based. Conditions: Stenocarpella maydis, 48 h, growth inhibition at 48 hours vs 2% DMSO control. The gist of the method: (§2)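 Pathogen growth in 17% V8 broth is measured by OD600 at 24 and 48 hours, after blank subtraction, in the presence of compound at 50, 10 and 2 ppm or 2, 0.4 and 0.08 ppm. Inhibition in percent comes from 48-hour readings against the DMSO control.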

Assay [3] deals with Fusarium moniliforme (Fm). The assay can be described thus: Growth inhibition assay of fungal pathogens, Fm. The class given is cell-based. Conditions: Fusarium verticillioides, 48 h, read-out: Concentration at 90% Inhibition Fm. The essentials: as §2
Assay [4] has as its system Botrtyis cinerea (Bc). In words: Growth inhibition assay of fungal pathogens, Bc. The class given is cell-based. Conditions: 48 h, growth inhibition at 48 hours vs 2% DMSO control. The gist of the method: as §2
The subject of assay [5] is Phytophthora capsici (Pc). The assay can be described thus: Growth inhibition assay of fungal pathogens, Pc. Conditions: 48 h. It counts as cell-based. The gist of the method: as §2
The test system of assay [6] is Collectotrichum graminicola (Cg). The assay can be described thus: Growth inhibition assay of fungal pathogens, Cg. The class given is cell-based. Conditions: 48 h, growth inhibition at 48 hours vs 2% DMSO control. The essentials:
as §2

Assay [7] relates to Rhizoctonia solani (Rs). In words: Growth inhibition assay of fungal pathogens, Rs. The class given is cell-based. Conditions: 48 h.
The target of assay [8] is human (hACC2) (Homo sapiens, UniProt O00763). The assay can be described thus: In vitro ACC inhibition assay (ADP-Glo), hACC2. The class given is biochemical. Conditions: Table 2b, additional results, 5 nM ACC2, 20 μM ATP, 20 μM acetyl-CoA. The procedure:
The detailed procedure is as follows. […] 10 μL ADP glo reagent was added. […] 20 μL kinase detection reagent was added.
For orientation: ADP-Glo first removes unused ATP, then detects ADP through luciferase.

The test system of assay [9] is Septoria tritici (St). In words: Growth inhibition assay of fungal pathogens, St. It counts as cell-based. Conditions: Zymoseptoria tritici, 48 h, growth inhibition at 48 hours vs 2% DMSO control. The gist of the method:
as §2

Assay [10] concerns C. krusei. The assay can be described thus: Antifungal Activity Assay (broth microtiter MIC), C. krusei. The class given is cell-based, Candida krusei. Conditions: Pichia kudriavzevii, ATCC6258, 48 h. The gist of the method: as §1
Assay [11] addresses fungal (fACC2) (UniProt Q00955). Conditions: read-out: fACC2 (in vitro ACC2 Inhibition Assay, IC50); Table 2b, additional results; ADP-Glo, 5 nM ACC2, 20 μM ATP, 20 μM acetyl-CoA.
Assay [12] relates to Fusarium virguliforme (Fv). The assay can be described thus: Growth inhibition assay of fungal pathogens, Fv. Conditions: 48 h. The class given is cell-based. The essentials:
as §2

Assay [13] has as its system C. parapsilosis. The assay can be described thus: Antifungal Activity Assay (broth microtiter MIC), C. parapsilosis. The class given is cell-based, Candida parapsilosis. Conditions: Lodderomyces parapsilosis, ATCC22019, 48 h. The essentials:
as §1

Setting [14] is: Table 3b (additional results), ATCC 90028, 3 replicates, MIC recorded at 48 h, read-out: MIC, C. albicans ATCC 90028.
The mark [15] stands for this setting: Diplodia maydis, read-out: Concentration at 90% Inhibition Dm.
Setting [16] is: Fusarium moniliforme, growth inhibition at 48 hours vs 2% DMSO control.
Where [17] appears, read: Botrtyis cinerea, read-out: Concentration at 90% Inhibition Bc.
Where [18] appears, read: growth inhibition at 48 hours vs 2% DMSO control, read-out: Concentration at 90% Inhibition Pc.
Setting [19] is: Collectotrichum graminicola, read-out: Concentration at 90% Inhibition Cg.
[20] abbreviates: mycelial plugs, growth inhibition at 48 hours vs 2% DMSO control, read-out: Concentration at 90% Inhibition Rs.
Setting [21] is: Septoria tritici, read-out: Concentration at 90% Inhibition St.
Where [22] appears, read: Table 3b (additional results), ATCC 6258, 3 replicates, MIC recorded at 48 h, read-out: MIC, C. krusei ATCC 6258.
Setting [23] is: growth inhibition at 48 hours vs 2% DMSO control, read-out: Concentration at 90% Inhibition Fv.
Setting [24] is: Table 3b (additional results), ATCC 22019, 3 replicates, MIC recorded at 48 h, read-out: MIC, C. parapsilosis ATCC 22019.
Where [25] appears, read: read-out: MIC, C. albicans ATCC 90028, Table 3b (additional results), 3 replicates, MIC recorded at 48 h.
Setting [26] is: read-out: Concentration at 90% Inhibition Dm, Diplodia maydis.
[27] abbreviates: read-out: Concentration at 90% Inhibition Bc, Botrtyis cinerea.
Where [28] appears, read: read-out: Concentration at 90% Inhibition Pc, Phytophthora capsici, growth inhibition at 48 hours vs 2% DMSO control.
[29] abbreviates: read-out: Concentration at 90% Inhibition Cg, Collectotrichum graminicola.
Where [30] appears, read: read-out: Concentration at 90% Inhibition Rs, Rhizoctonia solani, mycelial plugs, growth inhibition at 48 hours vs 2% DMSO control.
Setting [31] is: read-out: Concentration at 90% Inhibition St, Septoria tritici.
The mark [32] stands for this setting: read-out: MIC, C. krusei ATCC 6258, Table 3b (additional results), 3 replicates, MIC recorded at 48 h.
Setting [33] is: read-out: Concentration at 90% Inhibition Fv, Fusarium virguliforme, growth inhibition at 48 hours vs 2% DMSO control.
[34] abbreviates: read-out: MIC, C. parapsilosis ATCC 22019, Table 3b (additional results), 3 replicates, MIC recorded at 48 h.

Sequence of human (hACC2) (O00763 whole entry): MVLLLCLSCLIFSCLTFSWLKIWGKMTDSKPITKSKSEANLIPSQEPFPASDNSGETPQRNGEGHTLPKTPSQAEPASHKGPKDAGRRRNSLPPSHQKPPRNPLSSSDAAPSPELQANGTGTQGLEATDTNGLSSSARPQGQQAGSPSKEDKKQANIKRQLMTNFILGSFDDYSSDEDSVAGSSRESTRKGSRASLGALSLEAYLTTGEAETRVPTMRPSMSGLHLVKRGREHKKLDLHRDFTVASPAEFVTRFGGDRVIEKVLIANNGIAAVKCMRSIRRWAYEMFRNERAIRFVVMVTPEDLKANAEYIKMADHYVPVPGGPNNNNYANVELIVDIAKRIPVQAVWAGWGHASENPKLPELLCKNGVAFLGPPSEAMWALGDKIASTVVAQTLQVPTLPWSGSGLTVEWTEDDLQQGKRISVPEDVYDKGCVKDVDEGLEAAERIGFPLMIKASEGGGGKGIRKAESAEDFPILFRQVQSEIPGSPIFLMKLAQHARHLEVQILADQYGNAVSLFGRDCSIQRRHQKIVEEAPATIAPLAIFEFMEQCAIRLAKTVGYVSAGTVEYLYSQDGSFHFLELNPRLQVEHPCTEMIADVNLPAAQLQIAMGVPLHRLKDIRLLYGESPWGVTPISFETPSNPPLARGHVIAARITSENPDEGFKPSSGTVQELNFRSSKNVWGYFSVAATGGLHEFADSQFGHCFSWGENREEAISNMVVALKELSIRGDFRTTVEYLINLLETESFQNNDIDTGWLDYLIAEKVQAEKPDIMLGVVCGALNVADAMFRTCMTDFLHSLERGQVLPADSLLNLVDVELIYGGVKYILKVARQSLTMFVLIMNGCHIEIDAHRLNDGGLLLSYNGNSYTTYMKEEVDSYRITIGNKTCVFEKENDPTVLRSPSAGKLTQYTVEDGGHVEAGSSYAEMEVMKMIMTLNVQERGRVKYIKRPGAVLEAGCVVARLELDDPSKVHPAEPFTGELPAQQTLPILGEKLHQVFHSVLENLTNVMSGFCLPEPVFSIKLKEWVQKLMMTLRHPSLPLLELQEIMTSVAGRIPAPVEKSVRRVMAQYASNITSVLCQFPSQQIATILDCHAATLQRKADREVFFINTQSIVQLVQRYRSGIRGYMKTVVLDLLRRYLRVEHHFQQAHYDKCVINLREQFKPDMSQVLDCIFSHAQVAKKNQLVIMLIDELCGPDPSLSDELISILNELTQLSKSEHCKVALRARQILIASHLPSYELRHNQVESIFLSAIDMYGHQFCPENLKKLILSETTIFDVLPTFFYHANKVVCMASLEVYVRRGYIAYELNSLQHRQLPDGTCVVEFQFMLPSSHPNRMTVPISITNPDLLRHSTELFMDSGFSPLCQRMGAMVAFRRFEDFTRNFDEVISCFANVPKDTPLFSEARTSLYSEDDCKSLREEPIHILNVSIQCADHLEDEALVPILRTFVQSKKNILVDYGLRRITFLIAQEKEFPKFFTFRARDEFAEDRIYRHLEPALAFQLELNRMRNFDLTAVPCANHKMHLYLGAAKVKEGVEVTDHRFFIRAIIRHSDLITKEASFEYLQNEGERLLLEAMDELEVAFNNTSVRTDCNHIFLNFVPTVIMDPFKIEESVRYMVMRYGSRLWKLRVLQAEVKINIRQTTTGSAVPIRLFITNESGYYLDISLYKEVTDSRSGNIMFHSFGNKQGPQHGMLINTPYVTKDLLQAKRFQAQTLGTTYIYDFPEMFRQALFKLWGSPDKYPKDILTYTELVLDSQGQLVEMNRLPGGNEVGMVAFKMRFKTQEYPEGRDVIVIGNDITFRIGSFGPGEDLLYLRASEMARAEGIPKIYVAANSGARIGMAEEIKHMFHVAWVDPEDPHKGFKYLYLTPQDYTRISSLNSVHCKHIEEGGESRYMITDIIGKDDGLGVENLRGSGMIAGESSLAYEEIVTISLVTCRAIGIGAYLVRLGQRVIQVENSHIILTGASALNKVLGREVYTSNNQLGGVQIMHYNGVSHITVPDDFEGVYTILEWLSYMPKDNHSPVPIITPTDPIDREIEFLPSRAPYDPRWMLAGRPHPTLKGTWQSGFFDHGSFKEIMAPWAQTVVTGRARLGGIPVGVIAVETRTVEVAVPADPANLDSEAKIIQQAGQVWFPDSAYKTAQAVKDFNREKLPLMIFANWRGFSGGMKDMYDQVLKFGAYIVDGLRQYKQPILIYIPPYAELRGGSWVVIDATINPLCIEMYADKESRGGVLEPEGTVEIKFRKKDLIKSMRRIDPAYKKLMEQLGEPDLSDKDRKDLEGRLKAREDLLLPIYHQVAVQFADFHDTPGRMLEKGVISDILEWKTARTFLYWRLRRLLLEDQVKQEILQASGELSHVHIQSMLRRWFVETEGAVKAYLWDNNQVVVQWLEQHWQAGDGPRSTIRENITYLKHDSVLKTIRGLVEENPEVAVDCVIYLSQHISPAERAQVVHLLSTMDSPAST
Sequence of fungal (fACC2) (Q00955 whole entry): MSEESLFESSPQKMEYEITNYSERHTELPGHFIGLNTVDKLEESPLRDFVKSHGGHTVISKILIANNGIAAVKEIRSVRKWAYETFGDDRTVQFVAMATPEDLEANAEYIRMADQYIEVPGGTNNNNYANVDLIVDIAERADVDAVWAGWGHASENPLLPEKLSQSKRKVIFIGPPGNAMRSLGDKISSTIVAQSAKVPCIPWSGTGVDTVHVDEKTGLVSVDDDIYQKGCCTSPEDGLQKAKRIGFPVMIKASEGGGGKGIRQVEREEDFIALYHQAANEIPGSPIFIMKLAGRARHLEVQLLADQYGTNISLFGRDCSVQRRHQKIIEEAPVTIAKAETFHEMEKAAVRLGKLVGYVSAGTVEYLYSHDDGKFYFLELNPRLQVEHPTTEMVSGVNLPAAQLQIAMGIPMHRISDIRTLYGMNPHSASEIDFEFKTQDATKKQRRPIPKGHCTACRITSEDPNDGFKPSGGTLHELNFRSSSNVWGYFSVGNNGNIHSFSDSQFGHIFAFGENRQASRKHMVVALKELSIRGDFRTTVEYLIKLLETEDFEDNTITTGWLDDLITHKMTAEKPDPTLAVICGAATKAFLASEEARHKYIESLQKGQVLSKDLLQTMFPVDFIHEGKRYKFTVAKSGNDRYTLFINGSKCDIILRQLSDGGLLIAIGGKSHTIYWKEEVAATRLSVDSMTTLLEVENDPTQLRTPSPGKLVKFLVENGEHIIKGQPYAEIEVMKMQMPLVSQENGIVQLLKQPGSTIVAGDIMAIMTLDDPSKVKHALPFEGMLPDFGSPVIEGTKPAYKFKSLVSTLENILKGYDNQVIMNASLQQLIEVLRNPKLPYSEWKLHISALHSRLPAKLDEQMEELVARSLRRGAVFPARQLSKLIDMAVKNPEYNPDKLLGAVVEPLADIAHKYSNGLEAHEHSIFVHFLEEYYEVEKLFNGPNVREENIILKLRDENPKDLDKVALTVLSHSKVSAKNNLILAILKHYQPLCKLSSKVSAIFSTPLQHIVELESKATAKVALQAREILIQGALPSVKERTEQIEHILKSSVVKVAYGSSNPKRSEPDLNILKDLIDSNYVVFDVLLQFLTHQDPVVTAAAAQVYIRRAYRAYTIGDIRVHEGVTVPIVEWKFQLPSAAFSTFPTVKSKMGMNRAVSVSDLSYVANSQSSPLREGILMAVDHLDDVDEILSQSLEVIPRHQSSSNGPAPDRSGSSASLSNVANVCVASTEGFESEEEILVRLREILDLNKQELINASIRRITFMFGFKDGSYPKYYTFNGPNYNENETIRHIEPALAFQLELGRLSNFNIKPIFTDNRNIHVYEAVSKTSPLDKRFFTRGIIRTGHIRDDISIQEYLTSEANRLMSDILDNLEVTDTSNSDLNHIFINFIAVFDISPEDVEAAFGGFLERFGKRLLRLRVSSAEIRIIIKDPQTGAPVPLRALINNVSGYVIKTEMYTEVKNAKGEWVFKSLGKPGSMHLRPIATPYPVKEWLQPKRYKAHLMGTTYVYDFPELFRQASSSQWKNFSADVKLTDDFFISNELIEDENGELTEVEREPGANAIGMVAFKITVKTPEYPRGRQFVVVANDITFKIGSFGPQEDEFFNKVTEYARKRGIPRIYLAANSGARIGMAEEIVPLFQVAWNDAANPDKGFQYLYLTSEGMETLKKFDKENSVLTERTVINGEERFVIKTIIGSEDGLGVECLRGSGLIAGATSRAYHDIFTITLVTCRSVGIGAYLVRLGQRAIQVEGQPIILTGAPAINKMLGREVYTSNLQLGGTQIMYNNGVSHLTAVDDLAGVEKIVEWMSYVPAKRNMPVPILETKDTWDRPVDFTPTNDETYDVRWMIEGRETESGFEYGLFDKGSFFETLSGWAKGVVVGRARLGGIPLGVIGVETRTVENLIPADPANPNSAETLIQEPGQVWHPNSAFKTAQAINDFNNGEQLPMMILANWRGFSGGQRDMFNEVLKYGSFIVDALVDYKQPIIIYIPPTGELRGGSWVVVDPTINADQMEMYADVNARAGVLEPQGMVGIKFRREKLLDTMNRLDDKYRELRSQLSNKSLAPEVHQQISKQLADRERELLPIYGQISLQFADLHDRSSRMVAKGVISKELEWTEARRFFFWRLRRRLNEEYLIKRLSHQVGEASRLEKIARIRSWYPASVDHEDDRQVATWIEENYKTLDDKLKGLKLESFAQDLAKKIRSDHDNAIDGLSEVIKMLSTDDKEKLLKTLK

By MIC is commonly meant the lowest concentration found to suppress growth. What is called IC50 is the midpoint of a concentration-inhibition curve. Consider `COc1ccc(F)cc1[C@@](C)(Cn1c(=O)n(C(C)(C)C(=O)NC(C)C)c(=O)c2c(C)c(-n3nccn3)sc21)OCCC#N` [Compound I-230], for which the MIC lay within 0.25 to 1 µg/mL (≈ 0.409 to 1.63 µM) in assay [1] (setting [14]), 0.25 to 1 µg/mL (≈ 0.409 to 1.63 µM) in assay [10] (setting [22]) and 1.01 to 2 µg/mL (≈ 1.65 to 3.27 µM) in assay [13] (setting [24]). The IC90 is 0.4 µg/mL (≈ 0.654 µM) in assay [2] (setting [15]); 0.08 µg/mL (≈ 0.131 µM) in assay [3] (setting [16]); 0.4 µg/mL (≈ 0.654 µM) in [4] (setting [17]); 2 µg/mL (≈ 3.27 µM) in [5] (setting [18]); 0.08 µg/mL (≈ 0.131 µM) in assay [6] (setting [19]); 0.08 µg/mL (≈ 0.131 µM) in [7] (setting [20]). In addition, the IC90 in [9] (setting [21]) was above 50 µg/mL; in [12] (setting [23]), 0.4 µg/mL (≈ 0.654 µM). Further, the values for the IC50 in [8] and in [11] were 10 to 40 nM and 0.3 to 1 nM, respectively.

With `COc1ccc(F)cc1[C@@](O)(CCO)Cn1c(=O)n(C(C)(C)C(=O)NC(C)C)c(=O)c2c(C)c(-n3nccn3)sc21` [Compound I-231], the MIC in assay [1] (setting [25]) was in the range of 0.06 to 0.249 µg/mL (≈ 0.102 to 0.423 µM); in assay [10] (setting [32]), 0.06 to 0.249 µg/mL (≈ 0.102 to 0.423 µM); in assay [13] (setting [34]), 1.01 to 2 µg/mL (≈ 1.72 to 3.4 µM). The IC90 in assay [2] (setting [26]) was found to be 2 µg/mL (≈ 3.4 µM); in assay [3], 0.4 µg/mL (≈ 0.68 µM); in [4] (setting [27]) it was 2 µg/mL (≈ 3.4 µM); in assay [5] (setting [28]), 10 µg/mL (≈ 17 µM); in assay [6] (setting [29]), 2 µg/mL (≈ 3.4 µM); in assay [7] (setting [30]), 0.08 µg/mL (≈ 0.136 µM). In addition, the IC90 is above 50 µg/mL in [9] (setting [31]) and 2 µg/mL (≈ 3.4 µM) in assay [12] (setting [33]). Further, the results for the IC50 in assay [8] and in assay [11] were 10 to 40 nM and 1 to 5 nM, respectively.

In the case of `Cc1c(-n2nccn2)sc2c1c(=O)n(C(C)(C)C(=O)NC(C)C)c(=O)n2C[C@H](OC(C)C)c1cc(F)ccc1CCC#N` [Compound I-234], the MIC in [1] (setting [25]) lay in the range of 2.01 to 4 µg/mL (≈ 3.3 to 6.56 µM); in assay [10] (setting [32]) it was 1.01 to 2 µg/mL (≈ 1.66 to 3.28 µM); in [13] (setting [34]), 2.01 to 4 µg/mL (≈ 3.3 to 6.56 µM). The IC90 in [2] (setting [26]) is 2 µg/mL (≈ 3.28 µM); in assay [3], 0.08 µg/mL (≈ 0.131 µM); in assay [4] (setting [27]), 0.4 µg/mL (≈ 0.656 µM); in [5] (setting [28]), above 50 µg/mL; in assay [6] (setting [29]) it was 0.4 µg/mL (≈ 0.656 µM); in assay [7] (setting [30]), 0.08 µg/mL (≈ 0.131 µM). In addition, the results for the IC90 in [9] (setting [31]) and in assay [12] (setting [33]) were above 50 µg/mL and 0.08 µg/mL (≈ 0.131 µM), respectively. Further, the IC50 in assay [8] lay within 10 to 40 nM; in [11], 1 to 5 nM.

As for `Cc1c(-n2nccn2)sc2c1c(=O)n(C(C)(C)C(=O)NC(C)C)c(=O)n2C[C@H](OCC(C)(C)O)c1cc(F)ccc1OCC#N` [Compound I-235], the MIC in [1] (setting [25]) fell in the range of 0.25 to 1 µg/mL (≈ 0.39 to 1.56 µM); in [10] (setting [32]) it was 2.01 to 4 µg/mL (≈ 3.13 to 6.23 µM); in assay [13] (setting [34]), 1.01 to 2 µg/mL (≈ 1.57 to 3.12 µM). Moreover, the IC90 amounted to 2 µg/mL (≈ 3.12 µM) in assay [2] (setting [26]); 0.4 µg/mL (≈ 0.623 µM) in [3]; 2 µg/mL (≈ 3.12 µM) in assay [4] (setting [27]); 10 µg/mL (≈ 15.6 µM) in assay [5] (setting [28]); 0.4 µg/mL (≈ 0.623 µM) in assay [6] (setting [29]); 0.4 µg/mL (≈ 0.623 µM) in assay [7] (setting [30]). In addition, the IC90 in assay [9] (setting [31]) is above 50 µg/mL; in [12] (setting [33]), 2 µg/mL (≈ 3.12 µM). Further, the values for the IC50 in [8] and in assay [11] were 10 to 40 nM and 1 to 5 nM, respectively.

With `CCc1ccc(F)cc1[C@H](Cn1c(=O)n(C(C)(C)C(=O)NC(C)C)c(=O)c2c(C)c(-n3nccn3)sc21)OCC(C)(C)C#N` [Compound I-238], the MIC in assay [1] (setting [14]) was 1.01 to 2 µg/mL (≈ 1.62 to 3.21 µM); in assay [10] (setting [22]), above 4.01 µg/mL; in assay [13] (setting [24]), 2.01 to 4 µg/mL (≈ 3.22 to 6.41 µM). Moreover, the IC90 in assay [2] (setting [15]) was 2 µg/mL (≈ 3.21 µM); in assay [3] (setting [16]) it was 0.08 µg/mL (≈ 0.128 µM); in [4] (setting [17]), 0.08 µg/mL (≈ 0.128 µM); in [5] (setting [18]), above 50 µg/mL; in [6] (setting [19]), 0.08 µg/mL (≈ 0.128 µM); in [7] (setting [20]) it was 0.08 µg/mL (≈ 0.128 µM). The values for the IC90 in [9] (setting [21]) and in assay [12] (setting [23]) were above 50 µg/mL and 0.08 µg/mL (≈ 0.128 µM), respectively. Also, the IC50 in assay [8] was 5 to 10 nM; in [11], 1 to 5 nM.
